Measured values from patent US11746116B2, “Antibiotic resistance breakers” (KING'S COLLEGE LONDON, priority 2017, dated 2023).
Values after ≈ are worked out from the molar mass of the structure shown.

What was measured:
Ab17978 = experiment: MIC, microdilution broth method; format: cell-based
PA01 = experiment: MIC, microdilution broth method; format: cell-based, Pseudomonas aeruginosa
VRE12201 = experiment: MIC, microdilution broth method; format: cell-based, Enterococcus faecalis
[1] = test system: multidrug resistant strains; experiment: Reserpine growth assay in several multidrug resistant strains (FIG. 27); format: cell-based; conditions: compared to ML-83-009 or levofloxacin
Description: Reserpine was added at a final concentration of 10 μg/mL (made up at 40 μg/mL in TSB, 50 μL per well). The bacteria were added at an OD of 0.01 in TSB (100 μL/well). The plate was a normal clear plate as used for MICs. OD was read every 30 minutes for 9 hours (the literature states 7 hours, but this is strain-dependent).

[2] = ESKAPE panel, Gram-negative, in µg/mL

`Cc1cc(C)nc(N[C@@H]2CCN(c3c(F)cc4c(=O)c(C(=O)O)cn5c4c3OC[C@@H]5C)C2)n1` [KSN-BL7, (S)-10-((R)-3-((4,6-dimethylpyrimidin-2-yl)amino)pyrrolidin-1-yl)-9-fluoro-3-methyl-7-oxo-2,3-dihydro-7H-[1,4]oxazino[2,3,4-ij]quinoline-6-carboxylic acid] was tested, and the MIC (Ab17978; Acinetobacter baumannii) was at most 0.125 µg/mL, the “MIC, Ab17978” value (Ab17978; [2]) was at most 0.125 and the “MIC, PA01” value (PA01; [2]) was 8. The MIC (PA01; Pseudomonas aeruginosa) was 8 µg/mL (≈ 17.6 µM), the “MIC, VRE12201” value (VRE12201; ESKAPE panel, Gram-positive, in µg/mL) was 0.0313 and the MIC (VRE12201; Enterococcus faecalis) was 0.03 µg/mL (≈ 0.0662 µM). For the same molecule, the “efflux from the bacteria (reserpine growth assay)” value [1] was “reduced efflux”.
